Data as given in article PMC6274376, “Naturally Inspired Molecules as Multifunctional Agents for Alzheimer’s Disease Treatment” (Molecules, 2016).

What was measured:
[1] = tested on: SH-SY5Y cells; assay: Neurotoxicity, MTT cell viability assay; format: cell-based, human; conditions: SH-SY5Y cells, MTT
Protocol: Cytotoxic effects in several in vitro or in vivo models have been reported for some chalcones. Therefore, to discriminate the neurotoxic concentrations of the conjugates 3–5 we evaluated the cell viability of human neuronal SH-SY5Y cells after 24 h treatment with these conjugate at different concentrations (1.25–40 μM) using the MTT assay. […] Thus, the presence of an α,β-unsatured carbonyl fragment seems to positively influence the degree of neuronal toxicity, leading to molecules endowed with a favorable SI.
Human neuronal (SH-SY5Y) cells were routinely grown in Dulbecco’s modified Eagle’ Medium (DMEM) supplemented with 10% fetal bovine serum, 2 mmol/L-glutamine, 50 U·mL^−1penicillin and 50 μg·mL^−1streptomycin at 37 °C in a humidified incubator with 5% CO2.
To evaluate the neurotoxicity of compounds, the SH-SY5Y cells were seeded in 96-well plates at 2 × 10^4 cells/well, incubated for 24 h and subsequently treated with various concentrations of compounds (1.25–40 µM) for 24 h at 37 °C in 5% CO2;. The cell viability in terms of mitochondrial metabolic function was evaluated by the reduction in 3-(4,5-dimethyl-2-thiazolyl)-2,5-diphenyl-2H-tetrazolium bromide (MTT) to formazan as previously described. The quantity of formazan was directly proportional to the number of viable cells. Briefly, the treatment medium was replaced with MTT (5 mg/mL) in phosphate-buffered saline (PBS) for 2 h at 37 °C in 5% CO2. After washing with PBS, the formazan crystals were dissolved with isopropanol. The amount of formazan was measured (570 nm, reference filter 690 nm) using a multilabel plate reader (VICTOR™ X3, PerkinElmer, Waltham, MA, USA). The neurotoxicity is expressed as concentration of compound resulting in 50% inhibition of cell viability.

[2] = UV-vis spectrophotometric evaluation of Cu(II) ion complexation; format: physicochemical
From the text: Chalcone conjugates 4 and 5 were investigated to evaluate their ability to complex Cu(II) ions via a UV-vis spectrophotometric study.
Therefore, we decided to carry on the spectrophotometric measurements in a mixed solvent: aqueous MOPS aqueous buffer […] pH 7.4 /DMF in 1:4 ratio, respectively. Flavonoids bearing the 4-carbonyl-5-hydroxyl chelation site have characteristic UV-vis spectra, characterized by a wide and non-structured band centred around 370–380 nm, with a molar extinction coefficient of 50,000 cm^−1·M^−1 that is attributed to HOMO-LUMO transition with a π-π* character.
All reagents and solvents were used as received (from Aldrich, St. Louis, MO, USA) without further purification: copper(II) sulphate hydrate (≥98%), 3-(N-Morpholino)propanesulfonic acid (MOPS, ≥99.5%), sodium hydroxide (≥98%), N,N-dimethylformamide (spectroscopic grade, DMF). A Milli-Q system (Millipore, Billerica, MA, USA) was used for the purification of water (resistivity ≥18.2 MΩ). MOPS bufferstock solution were obtained by a dissolution in Milli-Q water of 3-(N-morpholino)propane sulphonic acid to a final concentration of 10^−3 M. The pH was corrected with a solution of sodium hydroxide 1 N to a value of pH 7.4. Absorption spectra were recorded on a Perkin-Elmer Lambda 45 spectrophotometer at room temperature. Spectrophotometric titrations were performed as follows: stock solutions of ligands (ca. 10^−3 M) were prepared in DMF, diluted down to the desired concentration, in the quartz cuvette, in MOPS buffer 10^−3 M pH 7.4/DMF (1:4) to a final volume of 2.5 mL and then titrated by adding increasing amounts of Cu(II) (3.04 × 10^−3 Min DMF).

[3] = target: hBACE-1 (Homo sapiens, UniProt P56817); assay: BACE-1 FRET inhibition assay; format: biochemical; conditions: FRET assay; average of multiple experiments each in triplicate, ± SEM
Protocol: The new benzophenone-based hybrids 3–7 presented in this study were first evaluated for their in vitro ability to inhibit the enzymatic activity of BACE-1, by means of a biochemical assay performed using the fluorescence resonance energy transfer (FRET) methodology and in comparison to inhibitor IV [22] as reference compound (Table 1). For the most interesting compounds 3–5, endowed with the orto-hydroxycarbonyl substitution pattern, the neuroprotective potential was determined as lack of toxic effects on neuronal cell viability and as Cu(II) chelating activity (Table 2); moreover, their direct interactions with Cu(II) ion were confirmed by a UV-vis spectrophotometric study.
Inhibition studies were performed using the following procedure: 5 μL of test compound (or DMSO) were pre-incubated with 175 μL of enzyme (10.37 nM, final concentration) in 20 mM NaOAc pH 4.5 containing CHAPS (0.1% w/v) for 1 h at r.t.; M-2420 (3 μM, final concentration) was then added and left to react for 15 min. The fluorescence signal was read at λem = 405 nm (λexc = 320 nm). DMSO concentration in the final mixture was maintained below 5% (v/v) to guarantee no significant loss of enzyme activity.Fluorescence intensities with and without inhibitor were compared and the percent inhibition due to the presence of test compounds was calculated. The background signal was measured in control wells containing all the reagents, except theenzymeand subtracted. The % inhibition due to the presence of increasing test compound concentration was calculated by the following expression: 100 − (IFi/IFo × 100) where IFi and IFo are the fluorescence intensities obtained for the enzyme in the presence and in the absence of inhibitor, respectively. Inhibition curves were obtained for each compound by plotting the % inhibition versus the logarithm of inhibitor concentration in the assay sample. The linear regression parameters were determined and the IC50 extrapolated (GraphPad Prism 4.0, GraphPad Software Inc., San Diego, CA, USA).

hBACE-1, sequence (P56817 46-501): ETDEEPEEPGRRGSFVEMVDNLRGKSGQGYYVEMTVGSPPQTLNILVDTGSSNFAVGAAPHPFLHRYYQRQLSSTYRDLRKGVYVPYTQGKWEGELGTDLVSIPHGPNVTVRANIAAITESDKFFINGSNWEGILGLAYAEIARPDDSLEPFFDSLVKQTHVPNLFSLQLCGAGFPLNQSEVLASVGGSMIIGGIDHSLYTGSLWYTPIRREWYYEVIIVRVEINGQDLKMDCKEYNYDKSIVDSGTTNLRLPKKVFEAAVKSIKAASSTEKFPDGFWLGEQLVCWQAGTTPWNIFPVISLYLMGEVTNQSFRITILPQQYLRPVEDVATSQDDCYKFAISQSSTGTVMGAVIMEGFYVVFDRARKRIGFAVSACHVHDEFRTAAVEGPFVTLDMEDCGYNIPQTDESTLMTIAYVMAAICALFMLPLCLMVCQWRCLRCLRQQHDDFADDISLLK

CN(Cc1ccccc1)Cc1ccc(C(=O)c2ccc(OCCOc3ccc(C(=O)/C=C/c4cccc5ccccc45)c(O)c3)cc2)cc1 [Compound 5, E-1-{4-[2-(4-4-Benzylmethylaminomethylbenzoylphenoxy)ethoxy]-2-hydroxyphenyl}-3-(naphthalen-1-yl)-prop-2-en-1-one]
IC50 ([1]; Homo sapiens, 24 h treatment, 1.25–40 µM, mean ± SD): > 40 µM
neurotoxic effects ([1]; 24 h, 1.25–40 μM): not
ability to complex Cu(II) ions ([2]; UV-vis spectra, MOPS buffer pH 7.4/DMF 1:4): able to chelate the selected ion
association constant (order of magnitude) ([2]; estimated from titration data, 1:1 complex stoichiometry with Cu(II), MOPS pH 7.4/DMF 1:4): ~10^4
IC50 [3]: 4.02 ± 0.29 µM
